Experimental data as given in US9255090B2, “Heterocyclyl derivatives and their use as prostaglandin D2 receptor modulators” (Actelion Pharmaceuticals Ltd., priority 2012, dated 2016).

How the values were obtained:
hCRTH2 receptor = hCRTH2 receptor (Homo sapiens (Human), UniProt Q9Y5Y4); assay: hCRTH2 receptor membranes radioligand (3H-PGD2) displacement assay; format: binding; conditions: 3H-PGD2 radioligand displacement, HEK293-hCRTH2 membranes
How it was run: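 Compound was first mixed with buffer, then 3H-PGD2 was added at 2.5 nM, and the reaction was started with hCRTH2 membranes from HEK293 cells at 20 μg/well. After 90 min at room temperature, mixtures were filtered and washed with ice-cold buffer, and retained radioactivity was counted.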

eosinophils = assay: Eosinophil shape change assay with human plasma; format: cell-based; conditions: human plasma (50%), PGD2 100 nM activation, antagonistic activity
How it was run: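 Human polymorphonuclear cells stained with anti-CD49d-APC, combined with compound-preincubated human plasma (50% of final volume, 4×10^6 cells/ml) for 10 min at 37° C., then stimulated 5 min with 100 nM PGD2 and fixed. Flow cytometry scored percent eosinophils with increased forward scatter.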

Chain of hCRTH2 receptor (Q9Y5Y4 whole entry): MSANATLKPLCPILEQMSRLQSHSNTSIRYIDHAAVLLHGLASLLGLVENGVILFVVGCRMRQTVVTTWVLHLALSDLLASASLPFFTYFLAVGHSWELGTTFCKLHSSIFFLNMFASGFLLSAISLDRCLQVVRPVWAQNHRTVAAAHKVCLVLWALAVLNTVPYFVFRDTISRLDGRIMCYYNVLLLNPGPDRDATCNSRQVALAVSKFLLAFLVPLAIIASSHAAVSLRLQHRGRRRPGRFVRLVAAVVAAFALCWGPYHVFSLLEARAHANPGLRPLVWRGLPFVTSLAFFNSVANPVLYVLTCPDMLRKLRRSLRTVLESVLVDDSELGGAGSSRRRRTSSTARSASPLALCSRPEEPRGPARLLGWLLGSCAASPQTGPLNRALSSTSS

IC50 (hCRTH2 receptor) [nM]	IC50 (eosinophils; Homo sapiens, Eosinophil) [nM]	IC50 (eosinophils) [nM]	SMILES
7.4	182	–	COc1ccc(CC(=O)O)cc1-c1ccc(F)c2c1CN(C(=O)CCN1CCc3ccccc31)CC2 [Example 59, {3-[2-(3-2,3-Dihydro-indol-1-yl-propionyl)-5-fluoro-1,2,3,4-tetrahydro-isoquinolin-8-yl]-4-methoxy-phenyl}-acetic acid]
2.3	46	–	CC(C)Oc1cc(CC(=O)O)ccc1-c1ccc(F)c2c1CN(C(=O)OCc1ccccc1)CC2 [Example 217, 8-(4-Carboxymethyl-2-isopropoxy-phenyl)-5-fluoro-3,4-dihydro-1H-isoquinoline-2-carboxylic acid benzyl ester]
4.5	26	–	CCOc1ccc(CC(=O)O)cc1-c1ccc(F)c2c1CN(C(=O)OCc1cc(F)ccc1F)CC2 [Example 401, 8-(5-Carboxymethyl-2-ethoxy-phenyl)-5-fluoro-3,4-dihydro-1H-isoquinoline-2-carboxylic acid 2,5-difluoro-benzyl ester]
3.9	19	–	CCOc1ccc(CC(=O)O)cc1-c1ccc(F)c2c1CN(C(=O)CC(C)c1ccc(F)cc1)CC2 (racemic) [Example 278]
7.8	98	–	COc1ccc(CC(=O)O)cc1-c1ccc(F)c2c1CN(C(=O)CC(C)c1ccccn1)CC2 (racemic) [Example 265]
6.8	76	–	CCOc1ccc(CC(=O)O)cc1-c1ccc(F)c2c1CN(C(=O)CC1(c3cccc(F)c3)CC1)CC2 [Example 275, [4-Ethoxy-3-(5-fluoro-2-{2-[1-(3-fluoro-phenyl)-cyclopropyl]-acetyl}-1,2,3,4-tetrahydro-isoquinolin-8-yl)-phenyl]-acetic acid]
6.8	15	–	CCOc1cc(CC(=O)O)ccc1-c1ccc(F)c2c1CN(C(=O)OCC1CCCCC1)CC2 [Example 397, 8-(4-Carboxymethyl-2-ethoxy-phenyl)-5-fluoro-3,4-dihydro-1H-isoquinoline-2-carboxylic acid cyclohexylmethyl ester]
2.7	25	–	COc1ccc(CC(=O)O)cc1-c1cc(F)cc2c1CN(C(=O)[C@@H]1C[C@H]1c1ccccc1)CC2 [Example 34, {3-[6-Fluoro-2-((1R,2R)-2-phenyl-cyclopropanecarbonyl)-1,2,3,4-tetrahydro-isoquinolin-8-yl]-4-methoxy-phenyl}-acetic acid]
4.36	34	–	COc1ccc(OCC(=O)O)cc1-c1ccc(F)c2c1CN(C(=O)[C@@H]1C[C@H]1c1ccccc1)CC2 [Example 182, {3-[5-Fluoro-2-((1R,2R)-2-phenyl-cyclopropanecarbonyl)-1,2,3,4-tetrahydro-isoquinolin-8-yl]-4-methoxy-phenoxy}-acetic acid]
10.4	37	–	COc1ccc(CC(=O)O)cc1-c1ccc(F)c2c1CN(C(=O)C[C@@H](C)c1ccccc1)CC2 [Example 106, {3-[5-Fluoro-2-((R)-3-phenyl-butyryl)-1,2,3,4-tetrahydro-isoquinolin-8-yl]-4-methoxy-phenyl}-acetic acid]
3.1	11	–	CCOc1ccc(CC(=O)O)cc1-c1ccc(F)c2c1CN(C(=O)C(C)Cc1ccccc1)CC2 (stereo not shown) [Example 214]
11.8	15	–	CCOc1ccc(CC(=O)O)cc1-c1ccc(F)c2c1CN(C(=O)CC1COc3ccccc3C1)CC2 (racemic) [Example 332]
6.3	59	–	CCCCOC(=O)N1CCc2c(F)ccc(-c3cc(CC(=O)O)ccc3OCC)c2C1 [Example 376, 8-(5-Carboxymethyl-2-ethoxy-phenyl)-5-fluoro-3,4-dihydro-1H-isoquinoline-2-carboxylic acid butyl ester]
5.9	307	–	COc1ccc(CC(=O)O)cc1-c1ccc(Cl)c2c1CN(C(=O)OCc1ccccc1)CC2 [Example 154, 8-(5-Carboxymethyl-2-methoxy-phenyl)-5-chloro-3,4-dihydro-1H-isoquinoline-2-carboxylic acid benzyl ester]
3.9	5	–	CCOc1cc(CC(=O)O)ccc1-c1ccc(F)c2c1CN(C(=O)OCc1ccc(F)cc1F)CC2 [Example 409, 8-(4-Carboxymethyl-2-ethoxy-phenyl)-5-fluoro-3,4-dihydro-1H-isoquinoline-2-carboxylic acid 2,4-difluoro-benzyl ester]
3.8	16	–	O=C(O)Cc1ccc(OCC(F)(F)F)c(-c2ccc(F)c3c2CN(C(=O)OCc2ccccc2)CC3)c1 [Example 421, 8-[5-Carboxymethyl-2-(2,2,2-trifluoro-ethoxy)-phenyl]-5-fluoro-3,4-dihydro-1H-isoquinoline-2-carboxylic acid benzyl ester]

IC50 (hCRTH2 receptor) [nM]	IC50 (eosinophils; Homo sapiens, Eosinophil) [nM]	IC50 (eosinophils) [nM]	SMILES
2.6	7	–	CCOc1ccc(CC(=O)O)cc1-c1ccc(F)c2c1CN(C(=O)CC(C)c1ccc(F)cc1)CC2 (stereo not shown) [Example 211, (4-Ethoxy-3-{5-fluoro-2-[3-(4-fluoro-phenyl)-butyryl]-1,2,3,4-tetrahydro-isoquinolin-8-yl}-phenyl)-acetic acid]
0.9	26	–	CCOc1ccc(CC(=O)O)cc1-c1ccc(F)c2c1CN(C(=O)CC1CCOc3cc(F)ccc31)CC2 (racemic) [Example 335]
2.8	101	–	COc1ccc(CC(=O)O)cc1-c1ccc(F)c2c1CN(C(=O)CC1(c3ccccc3)CC1)CC2 [Example 258, (3-{5-Fluoro-2-[2-(1-phenyl-cyclopropyl)-acetyl]-1,2,3,4-tetrahydro-isoquinolin-8-yl}-4-methoxy-phenyl)-acetic acid]
5.83	184	–	COc1ccc(CC(=O)O)cc1-c1ccc(F)c2c1CN(C(=O)CCc1ccccc1)CC2 [Example 54, {3-[5-Fluoro-2-(3-phenyl-propionyl)-1,2,3,4-tetrahydro-isoquinolin-8-yl]-4-methoxy-phenyl}-acetic acid]
2.4	17	–	CN(C)c1ccc(CC(=O)O)cc1-c1ccc(F)c2c1CN(C(=O)OCc1ccccc1)CC2 [Example 420, 8-(5-Carboxymethyl-2-dimethylamino-phenyl)-5-fluoro-3,4-dihydro-1H-isoquinoline-2-carboxylic acid benzyl ester]
0.3	9	–	CCOc1cc(CC(=O)O)ccc1-c1ccc(F)c2c1CN(C(=O)CC(C)(C)c1ccc(F)cc1)CC2 [Example 237, (3-Ethoxy-4-{5-fluoro-2-[3-(4-fluoro-phenyl)-3-methyl-butyryl]-1,2,3,4-tetrahydro-isoquinolin-8-yl}-phenyl)-acetic acid]
2.9	–	30	CCOc1ccc(CC(=O)O)cc1-c1ccc(F)c2c1CN(C(=O)CC(C)c1ccccn1)CC2 (stereo not shown) [Example 204, {4-Ethoxy-3-[5-fluoro-2-(3-pyridin-2-yl-butyryl)-1,2,3,4-tetrahydro-isoquinolin-8-yl]-phenyl}-acetic acid]
8.5	8	–	O=C(O)Cc1ccc(OCCF)c(-c2ccc(F)c3c2CN(C(=O)OCc2ccccc2)CC3)c1 [Example 422, 8-[5-Carboxymethyl-2-(2-fluoro-ethoxy)-phenyl]-5-fluoro-3,4-dihydro-1H-isoquinoline-2-carboxylic acid benzyl ester]
1.1	11	–	COc1cc(CC(=O)O)ccc1-c1ccc(F)c2c1CN(C(=O)CC(C)(C)c1ccc(F)cc1)CC2 [Example 358, (4-{5-Fluoro-2-[3-(4-fluoro-phenyl)-3-methyl-butyryl]-1,2,3,4-tetrahydro-isoquinolin-8-yl}-3-methoxy-phenyl)-acetic acid]
2.4	20	–	COc1ccc(CC(=O)O)cc1-c1ccc(F)c2c1CN(C(=O)CC(C)(C)c1ccc(F)cc1)CC2 [Example 363, (3-{5-Fluoro-2-[3-(4-fluoro-phenyl)-3-methyl-butyryl]-1,2,3,4-tetrahydro-isoquinolin-8-yl}-4-methoxy-phenyl)-acetic acid]
0.46	194	–	COc1cc(CC(=O)O)ccc1-c1ccc(F)c2c1CN(C(=O)CCc1cn(C)c3ccccc13)CC2 [Example 183, (4-{5-Fluoro-2-[3-(1-methyl-1H-indol-3-yl)-propionyl]-1,2,3,4-tetrahydro-isoquinolin-8-yl}-3-methoxy-phenyl)-acetic acid]
0.6	23	–	CCOc1ccc(CC(=O)O)cc1-c1ccc(F)c2c1CN(C(=O)OCc1cccc(C)n1)CC2 [Example 371, 8-(5-Carboxymethyl-2-ethoxy-phenyl)-5-fluoro-3,4-dihydro-1H-isoquinoline-2-carboxylic acid 6-methyl-pyridin-2-ylmethyl ester]
3.7	14	–	CCOc1ccc(CC(=O)O)cc1-c1ccc(F)c2c1CN(C(=O)NCc1ccccc1)CC2 [Example 438, [3-(2-Benzylcarbamoyl-5-fluoro-1,2,3,4-tetrahydro-isoquinolin-8-yl)-4-ethoxy-phenyl]-acetic acid]
6.9	45	–	CCOc1ccc(CC(=O)O)cc1-c1ccc(F)c2c1CN(C(=O)CC(C)c1cccc(F)c1)CC2 (racemic) [Example 279]
4.8	31	–	CCOc1ccc(CC(=O)O)cc1-c1ccc(F)c2c1CN(C(=O)CC(C)c1ccccn1)CC2 (racemic) [Example 345]
1.38	94	–	COc1cc(CC(=O)O)ccc1-c1ccc(F)c2c1CN(C(=O)COCc1ccccc1Cl)CC2 [Example 193, (4-{2-[2-(2-Chloro-benzyloxy)-acetyl]-5-fluoro-1,2,3,4-tetrahydro-isoquinolin-8-yl}-3-methoxy-phenyl)-acetic acid]
